According to patent publication US20180092908A1, “SMALL MOLECULE OXIDIZERS OF PDI AND THEIR USE” (THE TRUSTEES OF COLUMBIA UNIVERSITY IN THE CITY OF NEW YORK, priority 2015, published 2018):
Read-outs that look alike come from different tables or passages of the source.

Legend:
PC12 mHTT^Q103 cells = assay: Rescue of PC12 cells from mHTT^Q103 induced cell death (Alamar blue viability); type: cell-based; details: Rattus norvegicus
[1] = biological target: T1, human catalytic PDI A1 a domain (PDIa) (Homo sapiens, UniProt P07237); assay: Isothermal titration calorimetry (ITC) binding to PDIa
T1 construct: made in house; host or cells: Escherichia coli BL21-Gold (DE3)

[2] = biological target: T1, human catalytic PDI A1 a domain (PDIa); assay: as above; details: 400 μM LOC14 into 40 μM oxidized PDIa, compared to reduced PDIa

T1 sequence (P07237 with tags, fused parts or gaps): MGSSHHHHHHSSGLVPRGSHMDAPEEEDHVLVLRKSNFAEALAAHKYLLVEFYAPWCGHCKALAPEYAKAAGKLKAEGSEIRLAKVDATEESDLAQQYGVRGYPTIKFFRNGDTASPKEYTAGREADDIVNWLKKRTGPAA

## O=C(C1CC1)N1CCN(Cn2sc3ccccc3c2=O)CC1 [LOC14, 2-((4-(cyclopropanecarbonyl)piperazin-1-yl)methyl)benzo[d]isothiazol-3(2H)-one]
PC12 mHTT^Q103 cells; PC-12, 48 h, read-out: EC50, rescue of PC12 mHTT^Q103 cells
  EC50: 500 nM
PC12 mHTT^Q103 cells; PC-12, read-out: Cell Viability Assay EC50
  EC50: 102 nM
[1]; 40 μM PDIa pre-treated overnight with 200 μM 16F16
  binding affinity to PDIa with 16F16 pre-treatment: reduced
[1]; PDIa, Table 5, read-out: ITC Assay KD
  Kd: 113 nM
[1]; reduced PDIa 40 μM, compound 400 μM, 25° C., read-out: dissociation constant (Kd)
  Kd: 61.7 ± 5.6 nM
[2]
  binding affinity to oxidized PDIa: loss in binding affinity
